Read-outs that look alike come from different tables or passages of the source.
Test system: HSV-1
Assay: Plaque reduction assay, HSV-1 clinical isolates on Vero cells
Assay type: cell-based
Settings: Human alphaherpesvirus 1, Vero
Excerpt: Viral isolates were used to infect a sub-confluent monolayer of Vero cells at a concentration of 75 or 50 plaque forming units (PFU) per well for HSV-1 and HSV-2, respectively. […] CMC medium typically used to create a semisolid interface and prevents indiscrimate viral spreading. Other materials (e.g. agar) may also be used to create this interface.
Cells were fixed with 10% formalin and stained with crystal violet before enumeration of the plaques (microscopic observation or use of fluorescent antibodies for detection is also suitable). The data obtained from these experiments were then expressed as percent inhibition of viral infectivity relative to the no drug control.
Definitions of phenotypic drug susceptibility classification as sensitive or resistant were as follows: ACV, <3 μM or >40 μM; PCV, <10 μM or >40 μM; CDV, <24 μM or >30 μM; FOS, <250 μM or >400 μM; and ACV, <6.5 μM or >40 μM; PCV, <38 μM or >40 μM; FOS, <250 μM or >400 μM for HSV-1 and HSV-2, respectively. Any IC50 values falling in between these sensitive and resistant cut-offs were reported as intermediate resistance.
The phenotype (i.e. reactivity to a drug) of the virus was characterised by the plaque reduction assay as described above.

Nc1ccn(C[C@@H](CO)OCP(=O)(O)O)c(=O)n1 [Cidofovir, cidofovir]
IC50 (isolate HPG032, HSV-1 TK 183* (437_438insA), read-out: Drug susceptibility Cidofovir (CDV)): < 24 µM | IC50 (isolate HPG033, HSV-1 TK I358L (1072A>C), also TK T287M, read-out: Drug susceptibility (IC50 value)): 15 µM | IC50 (isolate HPG033, HSV-1 TK I358L (1072A>C), also TK T287M, read-out: Drug susceptibility Cidofovir (CDV)): < 24 µM | IC50 (isolate HPG033, HSV-1 pol N1046T (3137A>C), also TK T287M, pol A1169T, read-out: Drug susceptibility (IC50 value)): 15 µM | IC50 (isolate HPG033, HSV-1 pol N1046T (3137A>C), also TK T287M, pol A1169T, read-out: Drug susceptibility Cidofovir (CDV)): < 24 µM | IC50 (isolate HPG035, HSV-1 pol S239L (716C>T), also pol S724N, read-out: Drug susceptibility (IC50 value)): 39.6 µM | IC50 (isolate HPG035, HSV-1 pol S239L (716C>T), also pol S724N, read-out: Drug susceptibility Cidofovir (CDV)): > 30 µM | IC50 (isolate HPG037, HSV-1 TK L69M (205>A), also TK Y239H, read-out: Drug susceptibility Cidofovir (CDV)): < 24 µM | IC50 (isolate HPG037, HSV-1 TK R256W (766C>T), read-out: Drug susceptibility (IC50 value)): 4.39 µM | IC50 (isolate HPG037, HSV-1 TK R256W (766C>T), read-out: Drug susceptibility Cidofovir (CDV)): < 24 µM | IC50 (isolate HPG037, HSV-1 TK Y239H (715T>C), read-out: Drug susceptibility (IC50 value)): 4.39 µM | IC50 (isolate HPG037, HSV-1 TK Y239H (715T>C), read-out: Drug susceptibility Cidofovir (CDV)): < 24 µM | IC50 (isolate HPG039, HSV-1 TK 85* or H58fs (169delC, 170delC, 171delC, or 172delC), read-out: Drug susceptibility (IC50 value)): 2.97 µM | IC50 (isolate HPG039, HSV-1 TK 85* or H58fs (169delC, 170delC, 171delC, or 172delC), read-out: Drug susceptibility Cidofovir (CDV)): < 24 µM | IC50 (isolate HPG040, HSV-1 pol S911N (2732G>A), also TK deletion (C) nt 896-900, pol A1169T, read-out: Drug susceptibility (IC50 value)): 11.3 µM | IC50 (isolate HPG040, HSV-1 pol S911N (2732G>A), also TK deletion (C) nt 896-900, pol A1169T, read-out: Drug susceptibility Cidofovir (CDV)): < 24 µM | IC50 (isolate HPG041, HSV-1 pol S911N (2732G>A), also pol A1169T, read-out: Drug susceptibility (IC50 value)): 18 µM | IC50 (isolate HPG041, HSV-1 pol S911N (2732G>A), also pol A1169T, read-out: Drug susceptibility Cidofovir (CDV)): < 24 µM | IC50 (isolate HPG042, HSV-1 pol A972V (2915C>T), also TK deletion (C) nt 881-885, pol A1169T, read-out: Drug susceptibility (IC50 value)): < 1.56 µM | IC50 (isolate HPG042, HSV-1 pol A972V (2915C>T), also TK deletion (C) nt 881-885, pol A1169T, read-out: Drug susceptibility Cidofovir (CDV)): < 24 µM | IC50 (isolate HPG042, HSV-1 pol G22R (64G>A), also TK deletion (C) nt 881-885, pol A1169T, read-out: Drug susceptibility (IC50 value)): < 1.56 µM | IC50 (isolate HPG042, HSV-1 pol G22R (64G>A), also TK deletion (C) nt 881-885, pol A1169T, read-out: Drug susceptibility Cidofovir (CDV)): < 24 µM | IC50 (isolate HPG043, HSV-1 TK 183* (437_438insA), read-out: Drug susceptibility (IC50 value)): 1.65 µM | IC50 (isolate HPG043, HSV-1 TK 183* (437_438insA), read-out: Drug susceptibility Cidofovir (CDV)): < 24 µM | IC50 (isolate HPG045, HSV-1 TK L49R (146T>G), read-out: Drug susceptibility (IC50 value)): < 1.56 µM | IC50 (isolate HPG045, HSV-1 TK L49R (146T>G), read-out: Drug susceptibility Cidofovir (CDV)): < 24 µM | IC50 (isolate HPG045, HSV-1 pol L419I (1255C>A), also TK L49R, pol A1169T, read-out: Drug susceptibility (IC50 value)): < 1.56 µM | IC50 (isolate HPG045, HSV-1 pol L419I (1255C>A), also TK L49R, pol A1169T, read-out: Drug susceptibility Cidofovir (CDV)): < 24 µM | IC50 (isolate HPG046, HSV-1 TK I166N (497T>A), read-out: Drug susceptibility (IC50 value)): 2.1 µM | IC50 (isolate HPG046, HSV-1 TK I166N (497T>A), read-out: Drug susceptibility Cidofovir (CDV)): < 24 µM | IC50 (isolate HPG047, HSV-1 pol E680 (2039A>C), also TK deletion (C) nt 548-553, pol A1169T, read-out: Drug susceptibility Cidofovir (CDV)): < 24 µM | IC50 (isolate HPG051, HSV-1 pol D83A (248A>C), also TK R176stop, read-out: Drug susceptibility (IC50 value)): 4.94 µM | IC50 (isolate HPG051, HSV-1 pol D83A (248A>C), also TK R176stop, read-out: Drug susceptibility Cidofovir (CDV)): < 24 µM | IC50 (isolate HPG052, HSV-1 TK Q34* (100C>T), read-out: Drug susceptibility (IC50 value)): 4.77 µM | IC50 (isolate HPG052, HSV-1 TK Q34* (100C>T), read-out: Drug susceptibility Cidofovir (CDV)): < 24 µM | IC50 (isolate HPG053, HSV-1 pol L802R + A834S (2405T>G, 2500G>T), also TK R176W, read-out: Drug susceptibility Cidofovir (CDV)): < 24 µM | IC50 (isolate HPG053, HSV-1 pol S911N (2732G>A), also TK R176W, pol A1169T, read-out: Drug susceptibility (IC50 value)): 7.72 µM | IC50 (isolate HPG053, HSV-1 pol S911N (2732G>A), also TK R176W, pol A1169T, read-out: Drug susceptibility Cidofovir (CDV)): < 24 µM | IC50 (isolate HPG054, HSV-1 pol E992K (2974G>A), also TK insert (G) nt 430-436, pol A1169T, read-out: Drug susceptibility (IC50 value)): 3.85 µM | IC50 (isolate HPG054, HSV-1 pol E992K (2974G>A), also TK insert (G) nt 430-436, pol A1169T, read-out: Drug susceptibility Cidofovir (CDV)): < 24 µM | IC50 (isolate HPG055, HSV-1 TK V204G (611T>G), also pol A1169AT, read-out: Drug susceptibility (IC50 value)): < 1.56 µM | IC50 (isolate HPG055, HSV-1 TK V204G (611T>G), also pol A1169AT, read-out: Drug susceptibility Cidofovir (CDV)): < 24 µM | IC50 (read-out: Drug susceptibility (IC50 value), isolate HPG005, HSV-1 TK A192T (574G>A)): 2.21 µM | IC50 (read-out: Drug susceptibility (IC50 value), isolate HPG006, HSV-1 pol G121S (361G>A), also a TK resistance mutation (footnote a)): 6.14 µM | IC50 (read-out: Drug susceptibility (IC50 value), isolate HPG012, HSV-1 pol G985E (2954G>A), also TK A93V): 2.84 µM | IC50 (read-out: Drug susceptibility (IC50 value), isolate HPG016, HSV-1 pol A1169T (3505G>A)): 16.5 µM | IC50 (read-out: Drug susceptibility (IC50 value), isolate HPG037, HSV-1 TK L69M (205>A), also TK Y239H): 4.39 µM | IC50 (read-out: Drug susceptibility (IC50 value), isolate HPG042, HSV-1 TK frameshift (881delC to 885delC)): < 1.56 µM | IC50 (read-out: Drug susceptibility (IC50 value), isolate HPG047, HSV-1 pol E680 (2039A>C), also TK deletion (C) nt 548-553, pol A1169T): 2.88 µM | IC50 (read-out: Drug susceptibility Cidofovir (CDV), isolate HPG005, HSV-1 TK A192T (574G>A)): < 24 µM | IC50 (read-out: Drug susceptibility Cidofovir (CDV), isolate HPG006, HSV-1 pol G121S (361G>A), also a TK resistance mutation (footnote a)): < 24 µM | IC50 (read-out: Drug susceptibility Cidofovir (CDV), isolate HPG012, HSV-1 pol G985E (2954G>A), also TK A93V): < 24 µM | IC50 (read-out: Drug susceptibility Cidofovir (CDV), isolate HPG016, HSV-1 pol A1169T (3505G>A)): < 24 µM | IC50 (read-out: Drug susceptibility Cidofovir (CDV), isolate HPG042, HSV-1 TK frameshift (881delC to 885delC)): < 24 µM

— US12281363B2, “Methods for detecting antiviral-drug resistant virus” (Secretary of State for Health and Social Care, priority 2018, dated 2025)
